Assay results from patent US11766447B2, “3′3′-cyclic dinucleotide analogue comprising a cyclopentanyl modified nucleotide as sting modulator” (INSTITUTE OF ORGANIC CHEMISTRY AND BIOCHEMISTRY ASCR, V.V.I., priority 2019, dated 2023).
pEC50: −log10 of the molar value. Like-named read-outs stand apart in the source and are kept apart here.

How the values were obtained:
[1] = target: T1, AQ STING (G230A-R293Q) (Homo sapiens, UniProt Q86WV6, G230A/H232R/R293Q); assay: Differential scanning fluorimetry (DSF) with AQ STING; assay type: binding; details: thermal shift vs apoprotein; 150 μM CDN; truncated human AQ STING 0.1 mg/ml
T1 construct: 8xHis (N, cleaved yes); SUMO (N, cleaved yes); made in house; host or cells: E. coli Rosetta-gami B (DE3)
Description: (§1) Purified PCR products were cleaved with restriction enzymes BamHI (cat. #R0136S, NEB, Ipswich, USA) and NotI (cat. #R0189S, NEB, Ipswich, USA) and cloned into the pSUMO vector linearized with the identical enzymes.
(§2) DNase I (cat. #D5025, Sigma Aldrich, Czech Republic) and RNase A (cat. #R6513, Sigma Aldrich, Czech Republic) were added (final concentration 50 μg/ml) together with MgCl2 (final concentration 5 mmol·l^−1) to the homogenate and bacteria were lysed using French Press G-M™ High-Pressure Cell Press Homogenizer (1500 psi, 3 cycles). […] The resin was poured into a chromatography column, washed with 50 ml buffer A (50 mmol·l^−1 TrisCl (pH 8.0), 800 mmol·l^−1 NaCl, 3 mmol·l^−1 β-mercaptoethanol; 10% glycerol; 20 mmol·l^−1 imidazol) and 8-His-SUMO tagged STING proteins were eluted with 15 ml buffer A containing 300 mmol·l^−1 imidazole. […] Proteins were concentrated with Amicon® Ultra-15 10 K device (cat. #UFC901008, Merck Millipore, Billerica, USA) and flash frozen in liquid N2.
(§3) 20 μL solutions of the reaction mixtures were pipetted in triplicates into 96 well optical reaction plates and thermal denaturation of samples were performed on real time PCR cycler (LightCycler® 480 Instrument II—Roche, Basel, Switzerland). The first derivative of the thermal denaturation curves was performed to calculate denaturing temperatures of STING-CDN complexes and STING apoproteins. The thermal shift for each CDN was calculated by subtracting the average denaturing temperature of STING apoprotein from the average denaturing temperature of STING CDN complex.

[2] = target: T2, WT STING (Homo sapiens, UniProt Q86WV6, H232R); assay: Digitonin assay using 293T wtSTING-FL reporter cells; assay type: cell-based; set-up: host or cells: 293T (ATCC CRL-3216), stably transfected, with 4xISRE firefly luciferase reporter; details: 293T wtSTING-FL cells, ISRE firefly luciferase; compounds in Digitonin buffer 30 minutes, then 5 hours; 8-point curve
Source text: Two complementary oligonucleotides of the sequence […] […] […] […] […] The oligonucleotides were mixed in equal molar amounts, hybridized, and cleaved by restriction endonucleases HindIII (cat. #. R0104S, NEB, Ipswich, USA) and BglII (cat. #R0144S, NEB, Ipswich, USA). Ultimately, they were ligated into plasmid pGL4.27 (cat. #E6651, Promega, Madison, USA) linearized with the same enzymes. As result the sequence with four ISRE sites was placed upstream of the minimum promoter of firefly luciferase reporter gene.
After 5 minutes incubation at room temperature (RT), 250 μL of the mixture was added dropwise to the cells in one well. Cells were incubated 36 hours at 37° C. with 5% CO2, and then detached with 0.05% Trypsin and 0.22 g/L EDTA (both cat. #L0941, Biowest, Riverside, USA).
Transfected cells were seeded onto poly-D-lysine coated six well plates at density 50,000 cells per 1 cm^2 in DMEM medium with high glucose containing 10% heat inactivated FBS, 30 μg/mL blasticidin (cat. #ant-b1-05, InvivoGen, San Diego, USA), 0.06 mg/ml Penicillin G and 0.1 mg/ml Streptomycin Sulfate (both cat. #. L0018, Biowest, Riverside, USA). The medium was replenished every 3-4 days until visible colonies of cells resistant to blasticidin were formed.
Blasticidin resistant cells stably expressing WT STING were further transfected with […] plasmid following the same procedure as described above. […] Homogeneous culture of stably double transfected cells was prepared by limiting dilution of cells in 96 well plates and wells with cells were selected that originated from a single cell.
The medium was removed next day and three fold serial dilutions of compounds in Digitonin buffer containing 50 mmol·l^−1 HEPES (cat. #H3375, Sigma Aldrich, Czech Republic) pH 7.0, 100 mmol·l^−1 KCl, 3 mmol·l^−1 MgCl2, 0.1 mmol·l^−1 DTT (cat. #D0632, Sigma Aldrich, Czech Republic), 85 mmol·l^−1 Sucrose (cat. #S7903, Sigma Aldrich, Czech Republic), 0.2% BSA (cat. #A2153, Sigma Aldrich, Czech Republic), 1 mmol·l^−1 ATP (cat. #A1852, Sigma Aldrich, Czech Republic), 0.1 mmol·l^−1 GTP (cat. #G8877, Sigma Aldrich, Czech Republic), and 10 μg/mL Digitonin A (cat. #D141, Sigma Aldrich, Czech Republic) were added to the cells. The buffer was removed after 30 minutes incubation at 37° C. with 5% CO2, the cells were washed once with 100 μl of cultivation medium, and 100 μl of medium was added to each well. The plates with cells were incubated for 5 hours at 37° C. with 5% CO2, 50 μl of the medium was removed and 30 μl of ONE-Glo™ Luciferase Assay System reagent (cat. #E6120, Promega, Madison, USA) was added to each well. Luminescence was read on Synergy H1 (Biotek, Winooski, USA). GraphPad Prism (La Jolla, USA) was used to calculate the 50% effective concentration ([…] from an 8-point dose-response curve.
Target sequence in this assay (Q86WV6 whole entry H232R): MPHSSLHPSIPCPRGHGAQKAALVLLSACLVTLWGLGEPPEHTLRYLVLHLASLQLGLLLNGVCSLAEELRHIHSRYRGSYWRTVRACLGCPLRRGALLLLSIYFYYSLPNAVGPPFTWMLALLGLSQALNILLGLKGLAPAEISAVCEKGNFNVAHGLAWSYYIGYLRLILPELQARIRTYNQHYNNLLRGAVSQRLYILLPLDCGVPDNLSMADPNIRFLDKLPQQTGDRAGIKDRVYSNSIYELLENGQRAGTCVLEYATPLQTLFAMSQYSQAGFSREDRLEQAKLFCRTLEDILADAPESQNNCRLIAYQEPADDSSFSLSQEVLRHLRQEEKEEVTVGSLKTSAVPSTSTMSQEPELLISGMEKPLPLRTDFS

[3] = target: T2, WT STING; assay: Differential scanning fluorimetry (DSF) with WT STING; assay type: binding; set-up: 8xHis (N, cleaved yes); SUMO (N, cleaved yes); made in house; host or cells: E. coli Rosetta-gami B (DE3); details: thermal shift vs apoprotein; 150 μM CDN; truncated human WT STING 0.1 mg/ml
Description: as §1, §2, §3
Target sequence in this assay (Q86WV6 140-343 H232R): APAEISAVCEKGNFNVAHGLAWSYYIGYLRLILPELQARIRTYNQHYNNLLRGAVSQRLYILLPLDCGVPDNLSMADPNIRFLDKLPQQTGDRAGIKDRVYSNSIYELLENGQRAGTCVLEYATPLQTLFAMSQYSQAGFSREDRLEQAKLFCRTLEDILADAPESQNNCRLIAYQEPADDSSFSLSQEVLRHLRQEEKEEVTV

[4] = tested on: peripheral blood mononuclear cells (PBMC); assay: Peripheral blood mononuclear cell (PBMC) assay; assay type: cell-based; details: 1 h with compounds, washed, 15 hour incubation, average of one to four donors
Description: Selected compounds were tested in an in vitro peripheral blood mononuclear cell (PBMC) assay. […] Serially diluted tested compounds were added to wells in 50 μl of cultivation medium and cell were incubated with compounds for 1 h at 37° C. with 5% CO2. Plates with cells were then spun 500 g for 5 minutes and medium was removed. Cells were washed twice with the cell culture medium by the use of centrifugation and gently resuspended in 100 μl medium without compounds. After 15 hour incubation at 37° C. with 5% CO2, the cell culture medium was collected and the levels of interferon-alpha (INF-α), interferon-gamma (INF-γ) and tumor necrosis factor-alpha (TNF-α) were determined with ProcartaPlex Assays (ThermoFisher, Waltham, USA) and MAGPIX System (Merck KGaA, Darmstadt, Germany). […] Values reported are an average of runs from one to four donors.

T1 sequence (Q86WV6 140-343 G230A/H232R/R293Q): as the sequence (Q86WV6 140-343 H232R) above, with G91A, R154Q counted along it

Row | SMILES | pEC50 [2] | DSF ΔTm (° C.) WT STING [3] [°C] | ΔTm at 150 µM [1] [°C] | ΔTm at 150 µM [3] [°C] | further results
1 | Nc1nc2c(ncn2[C@@H]2O[C@@H]3COP(=O)(O)O[C@H]4[C@@H](O)[C@H](n5cnc6c(=O)[nH]c(N)nc65)O[C@@H]4COP(=O)(O)O[C@H]3[C@H]2O)c(=O)[nH]1 [3′3′c-di-GMP, reference compound] | 5.24 | 2.6 |  |  | DSF ΔTm (° C.) AQ STING [1]: 7.7 °C
2 | Nc1nc2c(ncn2[C@@H]2O[C@@H]3COP(=O)(O)OC4C(O)[C@H](n5cnc6c(N)ncnc65)C[C@@H]4COP(=O)(O)OC3C2O)c(=O)[nH]1 (stereo partly drawn) [Compound 112, 2-amino-9-((2R,3S,3aS,7aR,9R,10S,10aR,14aR)-9-(6-amino-9H-purin-9-yl)-3,5,10,12-tetrahydroxy-5,12-dioxidodecahydro-2H-cyclopenta[d]furo[3,2-j][1,3,7,9]tetraoxa[2,8]diphosphacyclododecin-2-yl)-1,9-dihydro-6H-purin-6-one] | 6.92 | 5.2 |  |  | DSF ΔTm (° C.) AQ STING [1]: 13.2 °C
3 | Nc1nc2c(ncn2[C@H]2CC3OP(=O)(O)OC[C@H]4O[C@@H](n5cnc6c(N)ncnc65)C(F)C4OP(=O)(O)OC[C@H]3C2)c(=O)[nH]1 (stereo partly drawn) [Compound 116, (6R,8R,15R,17R)-17-(2-amino-6-oxo-6,9-dihydro-1H-purin-9-yl)-8-(6-amino-9H-purin-9-yl)-9-fluoro-3,12-dihydroxy-2,4,7,11,13-pentaoxa-3λ^5,12λ^5-diphosphatricyclo[13.3.0.0^6,10]octadecane-3,12-dione] | 8.15 |  | 13.1 | 8.5 | 
4 | Nc1nc2c(ncn2[C@@H]2O[C@@H]3COP(=O)(O)OC4C(O)[C@H](n5cnc6c(N)ncnc65)C[C@@H]4COP(=O)(O)OC3C2F)c(=O)[nH]1 (single isomer, unassigned) [Compound 111] | 7.15 | 4.1 |  |  | DSF ΔTm (° C.) AQ STING [1]: 13.7 °C
5 | Nc1nc2c(ncn2[C@@H]2C[C@@H]3COP(=O)(O)OC4C(F)[C@H](n5cnc6c(=O)[nH]c(N)nc65)O[C@@H]4COP(=O)(O)OC3C2O)c(=O)[nH]1 (stereo partly drawn) [Compound 122, 9,9′-((2R,3R,3aR,7aR,9R,10S,10aR,14aR)-3-fluoro-5,10,12-trihydroxy-5,12-dioxidodecahydro-2H-cyclopenta[d]furo[3,2-j][1,3,7,9]tetraoxa[2,8]diphosphacyclododecine-2,9-diyl)bis(2-amino-1,9-dihydro-6H-purin-6-one)] | 5.80 |  | 9.5 | 3.5 | 
6 | Nc1ncnc2c1ncn2[C@@H]1C[C@@H]2COP(=O)(O)OC3C(O)[C@H](n4cnc5c(N)ncnc54)C[C@@H]3COP(=O)(O)OC2C1O (stereo partly drawn) [Compound 133, (2R,3S,3aR,7aR,9R,10S,10aR,14aR)-2,9-bis(6-amino-9H-purin-9-yl)-3,5,10,12-tetrahydroxydodecahydrodicyclopenta[d,j][1,3,7,9]tetraoxa[2,8]-diphosphacyclododecine 5,12-dioxide] | 5.92 |  | 4.4 | 0.6 | 
7 | Nc1nc2c(ncn2[C@@H]2O[C@@H]3COP(=O)(O)OC4C(O)[C@H](n5cnc6c(N)ncnc65)C[C@@H]4COP(=O)(O)OC3C2F)c(=O)[nH]1 (single isomer, unassigned) [Compound 109] | 8.00 | 8.9 | 18.5 |  | 
8 | Nc1nc2c(ncn2[C@@H]2C[C@@H]3COP(=O)(O)OC4C(O)[C@H](n5cnc6c(N)ncnc65)O[C@@H]4COP(=O)(O)OC3C2O)c(=O)[nH]1 (stereo partly drawn) [Compound 113, 2-amino-9-((2R,3S,3a5,7aR,9R,10S,10aR,14aR)-2-(6-amino-9H-purin-9-yl)-3,5,10,12-tetrahydroxy-5,12-dioxidodecahydro-2H-cyclopenta[d]furo[3,2-j][1,3,7,9]tetraoxa[2,8]diphosphacyclododecin-9-yl)-1,9-dihydro-6H-purin-6-one] | 5.44 |  | 7.9 | 2.1 | 
9 | COC1C2OP(=O)(O)OC[C@H]3C[C@@H](n4cnc5c(=O)[nH]c(N)nc54)C(O)C3OP(=O)(O)OC[C@H]2O[C@H]1n1cnc2c(N)ncnc21 (stereo partly drawn) [Compound 118, (6R,8R,15R,17R)-17-(2-amino-6-oxo-6,9-dihydro-1H-purin-9-yl)-8-(6-amino-9H-purin-9-yl)-3,12,18-trihydroxy-9-methoxy-2,4,7,11,13-pentaoxa-3λ^5,12λ^5-diphosphatricyclo[13.3.0.0^6,10]octadecane-3,12-dione] |  |  | 1.5 | 0.5 | 
10 | Nc1ncnc2c1ncn2[C@@H]1C[C@@H]2COP(=O)(S)OC3C(F)[C@H](n4cnc5c(N)ncnc54)O[C@@H]3COP(=O)(S)OC2C1F (single isomer, unassigned) [Compound 102c] | 8.00 |  |  |  | 
11 | CC(C)(C)C(=O)OCSP1(=O)OC[C@H]2O[C@@H](n3cnc4c(=O)[nH]c(N)nc43)[C@H](F)[C@@H]2OP(=O)(SCOC(=O)C(C)(C)C)OC[C@H]2C[C@@H](n3cnc4c(N)ncnc43)[C@H](F)[C@@H]2O1 (single isomer, unassigned) [Compound 150a] |  |  |  |  | EC50 ([4]; interferon-alpha level, read-out: PBMC EC50 (μM) IFN-α): 1 µM; EC50 ([4]; interferon-gamma level, read-out: PBMC EC50 (μM) IFN-γ): 0.7 µM; EC50 ([4]; tumor necrosis factor-alpha level, read-out: PBMC EC50 (μM) TNF-α): 0.7 µM
12 | Nc1ncnc2c1ncn2[C@@H]1C[C@@H]2COP(=O)(S)O[C@H]3C[C@H](n4cnc5c(N)ncnc54)O[C@@H]3COP(=O)(S)O[C@H]2[C@H]1F (single isomer, unassigned) [Compound 142a] | 7.52 |  |  |  | 
